Columns and labels:
[1] = test system: skin wound; assay: Skin wound healing in mice (excisional wounds); type: in vivo; details: 75% Argon versus 75% nitrogen
Source text: (§1) To create the excisional wounds, adult mice were anesthetized and the dorsal skin was shaved, after sanitizing with 70% ethanol, 4 full-thickness excisional wounds were generated with a 4-mm sterile punch (stiefel laboratories, Research Triangel Park, N.C.). On the dorsal skin using 4-mm-diameter dermal biopsy punches through the two layers of skin (Miltex Inc.).
A Macroscopic changes in skin wound site in a mice treated with 75% nitrogen or Argon. Day 0 picture was taken immediately after injury. Representative images from 2 individual animals in both groups are shown.

[2] = test system: CD34; assay: Anti-CD34 immunohistochemistry of skin wound samples (new vessels in the wound area); type: in vivo, mice; details: mouse skin wound samples, versus Nitrogen
Source text: as §1
(§2) The perfusion fixed skin tissue was cryosectioned (thickness 30 μm) and mounted on Superfrost Plus glass slides for the process of immunostaining analysis. The sections were initially incubated by a solution of 0.3% hydrogen peroxide in methanol to quench endogenous peroxidase before being exposed to a blocking solution of 0.1M phosphate buffered saline (PBS) containing 0.3% Triton X-100 and 3% natural sheep serum (NSS). Following this process of blocking the sections were incubated overnight at […] with rat polyclonal angiopoietin 1, VEGF, CD34, TGF-β (Abcam, UK). […]
(§3) (A) Immunohistochemical analyses using anti-CD34 in skin wound samples from the mice treated with Nitrogen and Argon. […] The numbers of new vessels per a high-power microscopic field (×100) in 10 fields/a slide was counted. […] The intensity of TGFβ was quantified by densitometry and normalized by 75% N2 at 3 day (mean±S.D, n=10), * p<0.05.

[3] = test system: Angiopoietin 1; assay: Angiopoietin 1 staining of adult mouse cutaneous wounds; type: in vivo; details: mouse cutaneous wounds, 3, 5, 8 day after wound, versus 75% N2
Source text: as §1, §2
(§4) (A) Angiopoietin 1 staining of adult mouse cutaneous wounds. […] Right lane: the intensity of Angiopoietin 1 was quantified by densitometry and normalized by 75% N2 at 3 day (mean±S.D, n=10), * p<0.05. […] The intensity of VEGF was quantified by densitometry and normalized by 75% N2 at 3 day (mean±S.D, n=10), * p<0.05.

[4] = test system: cerebral cortical neurons; details: 75% concentration, in vitro, regardless of presence or absence of OGD injury; cited from earlier work
[5] = test system: HUVECs; assay: Cell migration scratch assay; type: cell-based; details: 75% argon for 2 hours, 16 hours post-exposure
Method: The following was adopted from a previous published protocol (Liang et al., 2007) to study the influence of argon on migration of HUVECs. Prior to assay, HUVECs in EGM were re-suspended in incomplete LSGS medium and seeded onto pre-coated 12-well plates at a density of 2-3×10^5/well. The plates were incubated at 37° C. with 5% CO2 overnight for the cells to adhere to the gelatin surface as well as to create a confluent monolayer. Use of low serum condition is crucial as it ensures survival and attachment of cells while minimising their proliferation.
Once 100% confluence was reached, the monolayers were scraped using a sterile p1000 pipette tip along the middle to create a straight-line “scratch”. After cell debris was washed off, the wells were replenished with fresh incomplete-LSGS medium.
The plates were then exposed to normal air, 75% argon or 75% nitrogen for 2 hours. From 0 to 16 hours post-exposure, wells were examined every 4 hours. […] The cells were then fixed with 4% paraformaldehyde (Fischer, UK) for 8 minutes and stained with 0.1% crystal violet (Sigma-Aldrich, UK) for 10 minutes. Images were taken as described in the previous section.

[6] = test system: VEGF; assay: VEGF staining of adult mouse cutaneous wounds; type: in vivo; details: mouse cutaneous wounds, 3, 5, 8 day after wound, versus 75% N2
Source text: as §1, §2, §4

[7] = test system: TGF-β; assay: TGFβ staining of adult mouse cutaneous wounds; type: in vivo; details: mouse cutaneous wounds, 3, 5, 8 day after wound, versus 75% N2
Source text: as §1, §2, §3

[8] = test system: VEGF expression in fibroblasts; assay: VEGF expression in fibroblasts in vitro (immunofluorescence staining, western blotting); type: cell-based; details: 75% Argon+25% O2, 24 h after treatment
[9] = test system: a SMA expression in fibroblasts; assay: a-SMA expression in fibroblasts in vitro (immunofluorescence staining, western blotting); type: cell-based; details: 75% Argon+25% O2, 10 ng/ml TGF, 72 h after treatment
Method: For in vitro fluorescence staining, cells were fixed in paraformaldehyde in 0.1 mol/l PBS solution. Cells were then incubated in 10% normal donkey serum in 0.1 mol/l PBS-Tween 20 and then incubated overnight with rabbit anti-angiopoietin-1 (1:200, Abcam), rabbit anti-TGF-β (1:200, Abcam), rabbit α-SMA (1:200, Abcam), followed by incubation with secondary antibody for 1 h. The slides were counterstained with nuclear dye DAPI and mounted with VECTASHIELD Mounting Medium (Vector Laboratories, Burlingame, Calif.). Sections were examined using an Olympus (Watford, UK) BX4 microscope.
HUVEC cell sample was stored in a −80° C. freezer until use. Cell samples were homogenized in ice-cold cell lysis buffer (20 mM Tris pH 7.5, 1% Triton X-100, 150 mM sodium chloride, 1% pyrophosphate, 1% betaglycophosphate, 1% NP-40, 0.1% SDS, 1 mM EDTA, 100 μg/ml phenylmethylsulfonyl fluoride, 1 μg/ml aprotinin). All homogenates were then centrifuged for 20 minutes at 15,000 rpm at 4° C. The supernatants were then extracted and protein quantification was carried out using a Bradford protein quantification assay kit (Bio-Rad, Hemel Hempstead, UK). […]
Membranes were then blocked in 5% non-fat powdered milk in TBST (50 mM Tris-HCl, 150 mM sodium chloride, 0.1% Tween 20, pH 7.4). […] Protein bands were then analyzed by densitometric quantification with Adobe PhotoShop (Adobe Systems, California, USA). […]

[Ar] [Argon, argon]
Skin wound healing [1]: accelerated | CD34 in vivo (new vessels in the wound area) [2]: enhanced | Angiopoietin 1 expression in vivo [3]: enhanced | Viability and proliferation of cerebral cortical neurons [4]: potently enhanced | Scratch closure by migrating cells [5]: completely closed | VEGF expression in vivo [6]: enhanced | TGF-β in vivo [7]: enhanced | VEGF expression in vitro [8]: enhanced | a-SMA expression in vitro [9]: enhanced
